From patent US11827628B2, “Compositions and methods for inhibition of the JAK pathway” (Rigel Pharmaceuticals, Inc., priority 2005, dated 2023)
Counter-ions that a name gives are not always drawn. Like-named read-outs stand apart in the source and are kept apart here.

Test system: up-regulation of ICAM-1 (CD54) by IFNγ in A549 lung epithelial cells
Experiment: A549 Epithelial Line Stimulated with IFNγ (ICAM-1 surface expression, FACS)
Format: cell-based, human
Conditions: ICAM-1 expression by FACS, read-out: IC50, Example 43
How it was run: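 A549 cells pre-incubated 1 h with compound (30 μM to 14 nM, 5% FBS, 0.3% DMSO), then stimulated with IFNγ (75 ng/mL) for 24 h. Surface ICAM-1 stained with APC anti-CD54 and read by flow cytometry; geometric mean of live-gated events plotted against concentration for EC50.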

[1] = Homo sapiens, A549, A549 epithelial line stimulated with IFNγ
[2] = A549 cells stimulated with IFNγ

Compound | IC50 [1] [µM] | IC50 [2] [µM]
COc1ccc(Nc2ncc(F)c(Nc3ccc(OCC#N)cc3)n2)cc1S(N)(=O)=O [Compound I-56, N2-(3-Aminosulfonyl-4-methoxyphenyl)-N4-(4-cyanomethoxyphenyl)-5-fluoro-2,4-pyrimidinediamine] | 4.97 | 
Cc1ccc(Nc2ncc(C)c(Nc3ccc(OCC(N)=O)cc3)n2)cc1S(N)(=O)=O [Compound I-110, N4-(4-Aminocarbonylmethoxyphenyl)-N2-(3-aminosulfonyl-4-methylphenyl)-5-methyl-2,4-pyrimidinediamine] | 20.6 | 
NC(=O)COc1ccc(Nc2nc(Nc3cccc(S(N)(=O)=O)c3)ncc2F)cc1Cl [Compound I-98, N4-(4-Aminocarbonylmethoxy-3-chlorophenyl)-N2-(3-aminosulfonylphenyl)-5-fluoro-2,4-pyrimidinediamine] | 37.3 | 
N4-(3,4-Dichlorophenyl)-5-fluoro-N2-[3-(4-methylpipendin-1-yl)aminosulfonylphenyl]-2,4-pyrimidinediamine [VI-10] |  | 24.9
Cc1ccc(Nc2ncc(C)c(Nc3ccc(OCC(=O)N(C)C)c(Cl)c3)n2)cc1S(N)(=O)=O [Compound I-136, N2-(3-Aminosulfonyl-4-methylphenyl)-N4-(3-chloro-4-dimethylaminocarbonylmethoxyphenyl)-5-methyl-2,4-pyrimidinediamine] | 8.11 | 

The next lines start with the values.

IC50 [1] [µM] | IC50 [2] [µM] | Compound
25.5 |  | CNC(=O)OCCc1ccc(Nc2nc(Nc3cccc(S(N)(=O)=O)c3)ncc2F)cc1 [III-60, N2-(3-Aminosulfonylphenyl)-5-fluoro-N4-{4-[2-(methylaminocarbonyloxy)ethyl]phenyl}-2,4-pyrimidinediamine]
91.5 |  | Cc1cnc(Nc2cccc(S(N)(=O)=O)c2)nc1Nc1ccc(OCC(=O)N(C)C)c(F)c1 [Compound I-138, N2-(3-Aminosulfonylphenyl)-N4-(4-dimethylaminocarbonylmethoxy-3-fluorophenyl)-5-methyl-2,4-pyrimidinediamine]
 | 9.24 | COc1ccc(CN2C(=O)C(C)Oc3ccc(Nc4nc(Nc5ccc(S(N)(=O)=O)cc5)ncc4F)cc32)cc1 (racemic) [Compound V-4, Racemic N2-(4-Aminosulphonylphenyl)-5-fluoro-N4-[2-methyl-3-oxo-4-(4-methoxybenzyl)-benz[1,4]oxazin-6-yl]-2,4-pyrimidinediamine]
 | 31.3 | NS(=O)(=O)c1cccc(Nc2ncc(F)c(Nc3ccc(Cc4ccncc4)cc3)n2)c1 [III-129, N2-(3-Aminosulfonylphenyl)-5-fluoro-N4-[4-(4-pyridylmethyl)phenyl]-2,4-pyrimidinediamine Methanesulfonic Acid Salt]
21.9 |  | Cc1cc(Nc2nc(Nc3ccc(C)c(S(N)(=O)=O)c3)ncc2F)ccc1CCC#N [III-19, N2-(3-Aminosulfonyl-4-methylphenyl)-N4-[4-(2-cyanoethyl)-3-methylphenyl]-5-fluoro-2,4-pyrimidinediamine]
76.2 |  | NS(=O)(=O)c1cccc(Nc2ncc(F)c(NCCc3ccc(-n4ccnc4)cc3)n2)c1 [III-87, N2-(3-Aminosulfonylphenyl)-5-fluoro-N4-[4-(1-imidazolyl)phenethyl]-2,4-pyrimidinediamine]
